Columns and labels:
[1] = target: T1, motilin receptors (Oryctolagus cuniculus, UniProt G1T803); assay: Determination of the binding capacity of the test substances to motilin receptors (displacement of 125-iodine-labelled motilin, crude membrane preparation from rabbit antrum); details: tissue homogenate fraction from rabbit antrum; iodinated motilin 50 pM; 30° C., 60 min; read-out: pIC50 value (50% inhibition of the specific binding of the iodinated motilin to the motilin receptors) (converted)
T1 construct: fraction of a tissue homogenate from rabbit antrum; from tissue; host or cells: rabbit antrum, mucosa removed, crude membrane preparation
Method: 1. Determination of the binding capacity of the test substances to motilin receptors.
The affinity of the compounds of Formula I for motilin receptors is measured in vitro on a fraction of a tissue homogenate from rabbit antrum. The displacement of radioactively labelled iodinated motilin from motilin receptor binding by the test substances is determined.
The receptor binding studies are carried out by a modification of the method of Borman et al. (Regulatory Peptides, 15:143-153 (1986). To prepare the ^125 iodine-labelled motilin, motilin is iodinated enzymatically using lactoperoxidase in known manner, for example in analogy to the method described by Bloom et al., Scand. J. Gastroenterol.,11:47-52 (1976). […]
For the binding test, 200 μl of the crude membrane fraction (0.5-1 mg of protein) in 400 μl of a buffer solution A (50 mM tris-HCl buffer, 1.5% BSA, 10 mM MgCl2, pH 8.0) are incubated with 100 μl of iodinated motilin diluted in buffer solution B (10 mM tris-HCl buffer, 1% BSA, pH 8) (final concentration 50 pM) at 30° C. for 60 min. […] The residue obtained as pellet after the centrifugation is washed with buffer solution B and counted in a gamma counter. […] From this the corresponding pIC50 value is calculated.

[2] = tested on: stomach tone; assay: In vivo determination of the effect of the substances on the stomach tone (barostat, stomach volume at constant pressure after lipid intake); details: beagles; maximum tolerable dose; stomach volume measured at constant pressure with barostat
Method: 2. In vivo determination of the effect of the substances on the stomach tone.
The stomach tone plays an important role in gastric emptying. An increased stomach tone contributes to an increased rate of gastric emptying.
The influence of substances on the stomach tone is determined on beagles with the aid of a barostat which is connected to a plastic pouch in the stomach of the dog and permits measurement of volume or pressure in the stomach of the dog. With the barostat, the stomach volume is determined at a constant pressure in the stomach or the stomach pressure is determined at a constant volume in the stomach. When the stomach tone increases, a reduced stomach volume is detected at a given pressure, and an increased pressure at a given volume. In the test model used to investigate the increase in stomach tone effected by the substances, the change in stomach volume caused by the substances is measured at constant pressure. The stomach of the test animals is relaxed by intake of lipids, i.e. the stomach tone decreases, which causes the stomach volume to increase correspondingly. The reduction in % of the stomach volume which has been increased by administration of lipids which occurs after intake of the substance due to a re-increase in stomach tone is measured as a measurement of the stomach tone-increasing action of the substances.

T1 sequence (G1T803 1-400): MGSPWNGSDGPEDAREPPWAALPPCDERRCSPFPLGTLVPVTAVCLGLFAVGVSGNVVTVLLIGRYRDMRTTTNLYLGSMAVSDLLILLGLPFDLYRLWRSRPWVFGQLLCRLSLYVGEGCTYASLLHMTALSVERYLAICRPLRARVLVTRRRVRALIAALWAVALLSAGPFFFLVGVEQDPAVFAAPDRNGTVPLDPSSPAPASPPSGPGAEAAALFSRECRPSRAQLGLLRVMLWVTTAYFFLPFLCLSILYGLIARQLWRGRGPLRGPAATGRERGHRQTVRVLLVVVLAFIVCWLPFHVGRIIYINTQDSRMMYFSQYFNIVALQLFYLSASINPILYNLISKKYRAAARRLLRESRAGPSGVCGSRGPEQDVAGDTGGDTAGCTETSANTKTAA

- IC50 [1]: 14.1 nM
Compound: CC[C@@H](O)[C@@]1(C)O[C@]23O[C@](C)(CC2C)[C@H](O[C@@H]2O[C@H](C)C[C@H](N(C)C(C)C)[C@H]2O)[C@@H](C)[C@H](O[C@H]2C[C@@](C)(OC)[C@@H](O)[C@H](C)O2)[C@@H](C)C(=O)O[C@@H]1[C@H]3C (stereo partly drawn) [Example 1, [(1'R),2R,3S,4S,5R,6R,9R,11R,12R,14R]-11-(1'-hydroxypropyl)-3-[(2,6-dideoxy-3-C-methyl-3-0-methyl-α-L-ribohexopyranosyl)-oxy]-5-[(3,4,6-trideoxy-3-(N-methyl-N-isopropylamino)-β-D-xylo-hexopyranosyl)-oxy]-2,4,6,8,11,14-hexamethyl-10,13,15-trioxatricyclo[9.2.1.1^9.6]-pentadecan-1-one]
- reduction in the stomach volume increased after lipid administration [2]: 69%
